“And” between values parts separate entries of the source, which are not always exact repeats. Equal entries are not always repeated. Where two headings read alike, the source gives them in different places.
T1: sRNase A (Bos taurus, UniProt P61823)
T1 construct: purchased Sigma-Aldrich
T1 sequence (P61823 27-150): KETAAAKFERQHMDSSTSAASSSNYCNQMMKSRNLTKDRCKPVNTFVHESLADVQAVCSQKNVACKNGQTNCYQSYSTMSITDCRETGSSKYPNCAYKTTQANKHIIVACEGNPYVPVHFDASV


Legend:
sRNase A = molecular target: T1, sRNase A; assay: Assay for disulfide-bond isomerization activity: unscrambling of sRNase A to give native RNase A; type: biochemical, bovine; conditions: for Folding yield (%): native RNase A from sRNase A, 1 mM catalyst, 30° C., 50 mM Tris-HCl pH 7.6, GSH 1.0 mM, GSSG 0.2 mM, after 5 h
Protocol: FIGS. 4A and 4B are graphs illustrating catalysis of disulfide-bond isomerization by PDI and PDI mimics 1-7. (4A) Is a graph of the time-course for the unscrambling of sRNase A to give native RNase A. All reactions were performed at 30° C. in 50 mM Tris-HCl buffer, pH 7.6, containing GSH (1.0 mM), GSSG (0.2 mM), and PDI or dithiol 1-7 (1.0 mM). (4B) Is a graph of yield of native RNase A achieved by PDI mimics 2-7 after 5 h as a function of the calculated log P values listed in Table 1.
Enzymatic catalysis provides an extremely sensitive measure of native protein structure. RNase A contains eight cysteine residues, which could form 105 (=7×5×3×1) distinct fully oxidized species, only one of which gives rises to enzymatic activity (FIG. 3). Accordingly, the ability of this panel of compounds to catalyze the isomerization of “scrambled” RNase A (sRNase A) was tested. “Scrambled” RNase A is a random mixture of oxidized species, compared to its native state. The isomerization reaction was monitored by measuring the gain of catalytic activity.
sRNase was prepared as described previously, and validated by its having low ribonucleolytic activity and few free thiols according to Ellman's assay. Bovine liver PDI was from Sigma-Aldrich (product #P3818). The activation of sRNase A in the presence of refolding catalysts was determined as described previously. Refolding reactions were performed at 30° C. in 50 mM Tris-HCl buffer, pH 7.6, containing GSH (1.0 mM), GSSG (0.2 mM), and catalyst (1.0 mM). Organocatalysts were delivered from 100-fold concentrated stock solutions in DMSO. Reactions were initiated by the addition of sRNase A to a final concentration of 5 μg/mL. Reaction progress was monitored by quantifying the cleavage of the substrate 6-FAM-dArUdAdA-6-TAMRA at 493/515 nm, as described previously. Assays were performed in triplicate at ambient temperature in a black polystyrene 96-well plate, in 200 μL of 0.10 M MES-NaOH buffer, pH 6.0, containing NaCl (0.10 M). The resulting fluorescence data were fitted to the equation kcat/KM=(ΔI/Δt)/(If−I0)[E], in which ΔI/Δt is the initial reaction velocity, I0 is the fluorescence intensity before addition of any ribonuclease, If is the fluorescence intensity after complete substrate hydrolysis, and [E] is the total ribonuclease concentration. Reaction progress was monitored every hour until the increase in activity leveled off (˜5 h). In FIG. 4A, data were fitted to eq 2. [active RNase A]=[sRNase A]t=0(1−e^[catalyst]tk^obs) (2)

[1] = Determination of disulfide E°′ (equilibration with oxidized β-mercaptoethanol, analytical HPLC, Nernst equation); type: physicochemical; conditions: equilibrium with βME^ox, mean of three measurements
Protocol: (§1) Dithiol 2 was synthesized from diethylenetriamine in a few high-yielding steps (see: The Examples). Thiol pKa values were measured by monitored the thiols A238 am as a function of pH. […] These values are slightly less than those of BMC (Table 1), presumably due to the introduction of an additional electronegative nitrogen atom. To determine the reduction potential of the oxidized form of the dithiol, equimolar amounts of dithiol 2 and oxidized β-mercaptoethanol were equilibrated and the amount of each reduced and oxidized species was quantitated with analytical HPLC. […] Finally, to probe the effect of increasing hydrophobicity on catalyzing the formation of native disulfide bonds in proteins, dithiols 3-8 were synthesized.
The reduction potentials of BMC, 2, and 7 were determined as described previously. Briefly, an equilibrium was established between reduced BMC (or 2, 5, or 7) and βME^OX, and analyzed with analytical HPLC. The equilibrium concentrations were determined by integration of the peaks corresponding to βME and βME^ox. From these concentrations, the Keq for the reaction was determined and the reduction potential of BMC (or 2 or 7) was then calculated using the Nernst equation and EβME^OX^∘′=−0.260 V. The values reported are the mean (±SE) of three separate measurements for each compound

[2] = cited from earlier work
[3] = Determination of thiol pKa values (A238 vs pH); type: physicochemical; conditions: potassium phosphate buffers of varied pH, absorbance at 238 nm, 0.10 M potassium phosphate buffers
Protocol: as §1
The thiol pKa values for 2 and 7 were determined by closely following a procedure reported previously that exploits the elevated absorbance of the deprotonated thiolate at 238 nm. […] [9, 55]
In eq 1, CT is the total thiol concentration, εSH^SH is the extinction coefficient of the doubly protonated form of 2 or 7, εSH^S− is the extinction coefficient of the singly protonated form of 2 or 7, and εS−^S− is the extinction coefficient of the doubly deprotonated form of 2 or 7.

[4] = PDI active-site disulfide; literature value [21, 22]; cited from earlier work
[5] = higher of two thiol pKa values, read-out: thiol pKa (second value)
[6] = lower of two thiol pKa values, read-out: thiol pKa (first value)

Folding yield (%) (sRNase A)	Disulfide E°′ [1]	pKa [3, 5]	pKa [3, 6]	Molecule	other results
54 ± 4%				CCCC(=O)N(CCNC(=O)CS)CCNC(=O)CS [Dithiol 4]	
42 ± 2%	−0.232 V			O=C(CS)N[C@@H]1CCCC[C@H]1NC(=O)CS (racemic) [Dithiol 1, (±)-trans-1,2-bis(mercaptoacetamido)cyclohexane, reference compound]	thiol pKa (first value) ([2]; values from ref. [30]): 8.3; thiol pKa (second value) ([2]; values from ref. [30]): 9.9
66 ± 2%	−0.206 V	9.4 ± 0.2	8.1 ± 0.2	CCc1ccc(C(=O)N(CCNC(=O)CS)CCNC(=O)CS)cc1 [Dithiol 7]	increase of the yield of folded RNase A versus the uncatalyzed reaction (sRNase A; relative to uncatalyzed reaction (45 ± 2 %)): 47%
50 ± 2%		9.2 ± 0.1	8 ± 0.2	O=C(CS)NCCNCCNC(=O)CS [Dithiol 2]	Disulfide E°′ ([1]; listed as 2): −0.192 V; Disulfide E°′ ([1]; listed as dithiol 2): −0.192±0.003 V
57 ± 1%	−0.203 V	9.3 ± 0.3	8.1 ± 0.3	CCCCCC(=O)N(CCNC(=O)CS)CCNC(=O)CS [Dithiol 5]	
60 ± 2%				O=C(CS)NCCN(CCNC(=O)CS)C(=O)c1ccccc1 [Dithiol 6]	
45 ± 2%				CC(=O)N(CCNC(=O)CS)CCNC(=O)CS [Dithiol 3]	
87 ± 2%				PDI: enzyme protein disulfide isomerase (EC 5.3.4.1); bovine liver PDI from Sigma-Aldrich used in the assay (protein, UniProt P05307 21-510, looked up) Protein disulfide-isomerase: APDEEDHVLVLHKGNFDEALAAHKYLLVEFYAPWCGHCKALAPEYAKAAGKLKAEGSEIRLAKVDATEESDLAQQYGVRGYPTIKFFKNGDTASPKEYTAGREADDIVNWLKKRTGPAASTLSDGAAAEALVESSEVAVIGFFKDMESDSAKQFFLAAEVIDDIPFGITSNSDVFSKYQLDKDGVVLFKKFDEGRNNFEGEVTKEKLLDFIKHNQLPLVIEFTEQTAPKIFGGEIKTHILLFLPKSVSDYEGKLSNFKKAAESFKGKILFIFIDSDHTDNQRILEFFGLKKEECPAVRLITLEEEMTKYKPESDELTAEKITEFCHRFLEGKIKPHLMSQELPDDWDKQPVKVLVGKNFEEVAFDEKKNVFVEFYAPWCGHCKQLAPIWDKLGETYKDHENIVIAKMDSTANEVEAVKVHSFPTLKFFPASADRTVIDYNGERTLDGFKKFLESGGQDGAGDDDDLEDLEEAEEPDLEEDDDQKAVKDEL	pKa ([2]; N-terminal cysteine in the active site of PDI, literature value): 6.7; Disulfide E°′ [4]: −0.18 V and −0.180 V

Source: US9630916B2, “Organocatalysts of oxidative protein folding” (Wisconsin Alumni Research Foundation, priority 2014, dated 2017)
